Measurements reported in patent publication US8940310B2, “Methods of treatment using TLR7 and/or TLR9 inhibitors” (Dynavax Technologies Corporation, priority 2010, dated 2015).
Marks after values point to notes of the source that are not given here. [I] = hypoxanthine (inosine)

Tests used:
[1] = Monomer and tetramer formation of IRPs, size-exclusion HPLC; assay type: physicochemical; details: 100 mg/mL in PBS and 0.5M KCl, room temperature, five weeks
Method: Solutions were prepared of the by mixing 100 mg/mL of the IRP sequences in PBS and 0.5M KCl and storing at room temperature for three to five weeks. The solutions were subsequently analyzed by size-exclusion HPLC.

human B-cells = experiment: Human B-cells cultured in the presence of IRPs, IL-6
[2] = High dosages of IRPs in rats (weight, deaths, histology); assay type: in vivo, Sprague Dawley rats; details: rat; for Heart: Cell Vacuolation, number of animals / Heart: Hemorrhage, number of animals / Heart: Mononuclear Cell Infiltration, number of animals / Heart: Necrosis, number of animals / Heart: No significant changes, number of animals / Liver: Liver changes, number of animals / Liver: Mixed cell infiltration, number of animals / Liver: Necrosis, number of animals / Liver: No significant changes, number of animals / Liver: Vacuolation, number of animals / Right Kidney: Hydronephrosis, number of animals / Right Kidney: Mineralization, number of animals / Right Kidney: Necrosis, number of animals / Right Kidney: No significant changes, number of animals / Right Kidney: Tubular basophilia, number of animals / Right Kidney: Tubular changes, number of animals: 6 animals
Method: To test the activity of IRPs at high dosages in rats, IRPs (SEQ ID NO:42 and SEQ ID NO:109) or a control (PBS) were subcutaneously administered to 8-9 weeks old, […], 3, 6, and 9 (n=6 per group). Rats were weighed prior to administration and on days 1, 3, 4, 6, 7, and 9. Organs were harvested at the end of the study, and organ weights and tissues levels of the oligonucleotides were determined. In addition, histolocial evaluation of the liver, kidney, and heart was performed.
Rats were weighed prior to administration and on days 1, 3, 6, 7, and 9. Organs were harvested at the end of the study, and organ weights and tissues levels of the oligonucleotides were determined. In addition, histological evaluation of the liver, kidney, and heart was performed.

[3] = High dosages of IRPs in mice (weight, histology); assay type: in vivo, BALB/c mice; details: for Liver: Liver changes, number of animals / Liver: Mixed cell infiltration, number of animals / Liver: No significan changes, number of animals / Right Kidney: No significant changes, number of animals / Right Kidney: Tubular basophilia, number of animals / Right Kidney: Tubular changes, number of animals: 6 animals; for Heart: No significant changes, number of animals: tissue missing in two animals
Method: To test the activity of IRPs at high dosages in mice, IRPs or a control (saline) were subcutaneously administered to BALB/c mice at a dosage of 4 mg/kg, 20 mg/kg, 50 mg/kg, or 100 mg/kg on days 1, 4, 7, and 10 (n=5 per group). Mice were weighed prior to administration and on days 2, 4, 7, 9, and 11. Serum cytokines were assayed at two hours post the first and third injections and 24 hours post the fourth injection. Organs were harvested at the end of the study, and organ weights and tissues levels of the oligonucleotides were determined. In addition, histological evaluation of the liver, kidney, and heart was performed.
Mice were weighed prior to administration and on days 1, 3, 4, 6, 7, and 9. Organs were harvested at the end of the study, and organ weights and tissues levels of the oligonucleotides were determined. In addition, histological evaluation of the liver, kidney, and heart was performed.

[4] = 10 mg/kg, 0 = no change to 4 = severe
[5] = 90 mg/kg, 0 = no change to 4 = severe
[6] = 50 mg/kg, 0 = no change to 4 = severe
[7] = 100 mg/kg, 0 = no change to 4 = severe

For “5′-TGC TGC TCC TGG AGI GGT GTT GT-3′ (DNA TGCTGCTCCTGGAGNGGTGTTGT; DNA, [I] at 15, backbone and methylation of C not given here) [SEQ ID NO:79]”, the “fraction in monomer form” value [1] was 100%, the “Normalized IL-6 Response (Percentage of Positive Control)” value (human B-cells; Experiment # 1, Max Conc 4.0 uM) was 33% and the “Normalized IL-6 Response (Percentage of Positive Control)” value (human B-cells; Experiment # 3, Max Conc 4.0 uM) was 18%. The “Normalized IL-6 Response (Percentage of Positive Control)” value (human B-cells; Experiment # 11, Max Conc 2.0 uM) was 28%, the B-cell stimulatory activity (human B-cells; FIG. 1C, percent IL-6 from CpG-ISS) was “low B-cell stimulatory activity” and the “Heart: Cell Vacuolation, number of animals” value ([2]; 10 mg/kg) was 0. For the same substance, the “Heart: Hemorrhage, number of animals” value ([2]; 10 mg/kg) was 0, the “Heart: Mononuclear Cell Infiltration, number of animals” value ([2]; 10 mg/kg) was 0 and the “Heart: Necrosis, number of animals” value ([2]; 10 mg/kg) was 0. The “Heart: No significant changes, number of animals” value (“Heart: No significant changes” for short) ([2]; 10 mg/kg) was 6, the “Liver: Liver changes, number of animals” value ([2]; 10 mg/kg) was 0 and the “Liver: Mixed cell infiltration, number of animals” value ([2]; 10 mg/kg) was 6. For the same substance, the “Liver: Necrosis, number of animals” value ([2]; 10 mg/kg) was 0, the “Liver: No significant changes, number of animals” value ([2]; 10 mg/kg) was 0 and the “Liver: Vacuolation, number of animals” value ([2]; 10 mg/kg) was 0. The “Right Kidney: Hydronephrosis, number of animals” value ([2]; 10 mg/kg) was 0, the “Right Kidney: Mineralization, number of animals” value ([2]; 10 mg/kg) was 2 and the “Right Kidney: Necrosis, number of animals” value ([2]; 10 mg/kg) was 0. The “Right Kidney: No significant changes, number of animals” value (“Right Kidney: No significant changes” below) ([2]; 10 mg/kg) was 1, the “Right Kidney: Tubular basophilia, number of animals” value ([2]; 10 mg/kg) was 0 and the “Right Kidney: Tubular changes, number of animals” value ([2]; 10 mg/kg) was 5. For the same substance, the “Liver: Mixed cell infiltration, mean severity score” value [2, 4] was 1.8, the “Right Kidney: Mineralization, mean severity score” value [2, 4] was 1.0 and the “Right Kidney: Tubular changes, mean severity score” value [2, 4] was 1.1. For the same substance, the “Heart: cellular vacuolation” value ([2]; 90 mg/kg) was “present in some animals”, the “Heart: hemorrhage and necrosis” value ([2]; 90 mg/kg) was “noted” and the “Kidney: tubular basophilia” value ([2]; 90 mg/kg) was “occurred”. The “Liver: hepatocellular cytoplasmic vacuolation” value ([2]; 90 mg/kg) was “hepatocellular cytoplasmic vacuolation”, the “Liver: hepatocellular necrosis” value ([2]; 90 mg/kg) was “hepatocellular necrosis” and the “Renal necrosis” value ([2]; 90 mg/kg) was “noted”. For the same substance, the “deaths two days after the first dose” value ([2]; 90 mg/kg SC, n=6) was “two rats died”, the “deaths two days after the second dose” value ([2]; 90 mg/kg SC, n=6) was “one rat died” and the “Heart: Cell Vacuolation, number of animals” value ([2]; 90 mg/kg) was 2. The “Heart: Hemorrhage, number of animals” value ([2]; 90 mg/kg) was 2, the “Heart: Mononuclear Cell Infiltration, number of animals” value ([2]; 90 mg/kg) was 0 and the “Heart: Necrosis, number of animals” value ([2]; 90 mg/kg) was 3. For the same substance, the “Heart: No significant changes” value ([2]; 90 mg/kg) was 1, the “Liver: Liver changes, number of animals” value ([2]; 90 mg/kg) was 3 and the “Liver: Mixed cell infiltration, number of animals” value ([2]; 90 mg/kg) was 3. The “Liver: Necrosis, number of animals” value ([2]; 90 mg/kg) was 2, the “Liver: No significant changes, number of animals” value ([2]; 90 mg/kg) was 0 and the “Liver: Vacuolation, number of animals” value ([2]; 90 mg/kg) was 3. The “Right Kidney: Hydronephrosis, number of animals” value ([2]; 90 mg/kg) was 0, the “Right Kidney: Mineralization, number of animals” value ([2]; 90 mg/kg) was 1 and the “Right Kidney: Necrosis, number of animals” value ([2]; 90 mg/kg) was 3. For the same substance, the “Right Kidney: No significant changes” value ([2]; 90 mg/kg) was 0, the “Right Kidney: Tubular basophilia, number of animals” value ([2]; 90 mg/kg) was 2 and the “Right Kidney: Tubular changes, number of animals” value ([2]; 90 mg/kg) was 3. For the same substance, the “Heart: Cell Vacuolation, mean severity score” value [2, 5] was 1.5, the “Heart: Hemorrhage, mean severity score” value [2, 5] was 3.5 and the “Heart: Necrosis, mean severity score” value [2, 5] was 2.0. For the same substance, the “Liver: Liver changes, mean severity score” value [2, 5] was 1.8, the “Liver: Mixed cell infiltration, mean severity score” value [2, 5] was 2.5 and the “Liver: Necrosis, mean severity score” value [2, 5] was 2.8. For the same substance, the “Liver: Vacuolation, mean severity score” value [2, 5] was 2.3, the “Right Kidney: Mineralization, mean severity score” value [2, 5] was 2.0 and the “Right Kidney: Necrosis, mean severity score” value [2, 5] was 4.0. For the same substance, the “Right Kidney: Tubular basophilia, mean severity score” value [2, 5] was 2.8, the “Right Kidney: Tubular changes, mean severity score” value [2, 5] was 2.0 and the “Heart: Chronic inflammation, number of animals” value ([3]; 50 mg/kg) was 2. The “Heart: Mineralization, number of animals” value ([3]; 50 mg/kg) was 1, the “Heart: Chronic inflammation, mean severity score” value [3, 6] was 2.0 and the “Heart: Mineralization, mean severity score” value [3, 6] was 2.0. For the same substance, the “Liver: Liver changes, mean severity score” value [3, 6] was 1.0, the “Liver: Mixed cell infiltration, mean severity score” value [3, 6] was 1.0 and the “Liver: Liver changes, number of animals” value ([3]; 50 mg/kg) was 6. The “Liver: Mixed cell infiltration, number of animals” value ([3]; 50 mg/kg) was 4, the “Liver: No significan changes, number of animals” value ([3]; 50 mg/kg) was 0 and the “Right Kidney: No significant changes” value ([3]; 50 mg/kg) was 6. The “Right Kidney: Tubular basophilia, number of animals” value ([3]; 50 mg/kg) was 0, the “Right Kidney: Tubular changes, number of animals” value ([3]; 50 mg/kg) was 0 and the “Heart: No significant changes” value ([3]; 50 mg/kg) was 1**. The “Heart: Chronic inflammation, number of animals” value ([3]; 100 mg/kg) was 1, the “Heart: Mineralization, number of animals” value ([3]; 100 mg/kg) was 2 and the “Heart: Chronic inflammation, mean severity score” value [3, 7] was 3.0. The “Heart: Mineralization, mean severity score” value [3, 7] was 2.5, the “Liver: Liver changes, mean severity score” value [3, 7] was 2.0 and the “Liver: Mixed cell infiltration, mean severity score” value [3, 7] was 2.0. For the same substance, the “Right Kidney: Tubular changes, mean severity score” value [3, 7] was 2.0, the “Liver: Liver changes, number of animals” value ([3]; 100 mg/kg) was 6 and the “Liver: Mixed cell infiltration, number of animals” value ([3]; 100 mg/kg) was 6. The “Liver: No significan changes, number of animals” value ([3]; 100 mg/kg) was 0, the “Right Kidney: No significant changes” value ([3]; 100 mg/kg) was 0 and the “Right Kidney: Tubular basophilia, number of animals” value ([3]; 100 mg/kg) was 0. For the same substance, the “Right Kidney: Tubular changes, number of animals” value ([3]; 100 mg/kg) was 6 and the “Heart: No significant changes” value ([3]; 100 mg/kg) was 1**.
